Measured values reported in ChEMBL document CHEMBL1126548, “Methoxylation of cocaine reduces binding affinity and produces compounds of differential binding and dopamine uptake inhibitory activity: discovery of a weak cocaine "antagonist"” (J Med Chem, 1993).

Columns and labels:
[1] = species on record: Rattus norvegicus; assay: Binding affinity against [3H]mazindol
[2] = species on record: Rattus norvegicus; assay: Compound tested for inhibitory activity against [3H]dopamine uptake in synaptosomes from rat caudate nucleus; design: species or system Brain
[3] = species on record: Rattus norvegicus; assay: Effect on cocaine inhibition of [3H]dopamine uptake at 50 uM
[4] = species on record: Rattus norvegicus; assay: Effect on cocaine inhibition of [3H]dopamine uptake at 200 uM
[5] = species on record: Rattus norvegicus; assay: Effect on cocaine inhibition of [3H]-dopamine uptake at 500 uM
[6] = species on record: Rattus norvegicus; assay: Effect on cocaine inhibition of [3H]dopamine uptake

COC(=O)[C@@H]1C2C[C@H](OC)[C@H](C[C@@H]1OC(=O)c1ccccc1)N2C (mixture of isomers)
Ki [1]: 98 µM | Ki [2]: 68 µM

COC(=O)[C@@H]1C2[C@H](OC)C[C@H](C[C@@H]1OC(=O)c1ccccc1)N2C (mixture of isomers)
Ki [1]: 4.2 µM | Ki [2]: 6.1 µM

COC(=O)[C@H]1C2[C@@H](OC)C[C@H](C[C@@H]1OC(=O)c1ccccc1)N2C (mixture of isomers)
IC50 [3]: 0.501 µM | IC50 [4]: 0.936 µM | Ki [1]: 54 µM | Ki [2]: 200 µM

COC(=O)[C@H]1C2[C@H](OC)C[C@H](C[C@@H]1OC(=O)c1ccccc1)N2C (mixture of isomers)
Ki [1]: 45 µM | Ki [2]: 110 µM

COC(=O)[C@H]1C2C[C@H](OC)[C@H](C[C@@H]1OC(=O)c1ccccc1)N2C (mixture of isomers)
IC50 [5]: 1.02 µM | Ki [1]: 190 µM | Ki [2]: 510 µM

COC(=O)[C@H]1[C@@H](OC(=O)c2ccccc2)C[C@@H]2CC[C@H]1N2C [COCAINE]
IC50 [6]: 0.336 µM | Ki [1]: 0.28 µM | Ki [2]: 0.32 µM

COC(=O)[C@H]1C2CCC(C[C@@H]1OC(=O)c1ccccc1)N2 (stereo partly drawn) [PSEUDOCOCAINE]
Ki [1]: 10.4 µM | Ki [2]: 13.8 µM
